# Experimental data reported in patent US20170304396A1, “AQUEOUS SOLUTION FORMULATIONS OF VANCOMYCIN” (priority 2015, published 2017).
# Structures can show the parent of a compound that is named as a salt.
# Columns and labels:
# [1] = type: physicochemical
# Protocol: The aim of this study was to compare effects of various ingredients on vancomycin stability in a solution in order to identify a stabilizer that can slow the degradation of vancomycin in solution. Each solution sample (coded with an F-#) was prepared by dissolving vancomycin HCl to 1% concentration, along with stabilizer added at the concentrations listed in the Table below. Each solution was adjusted to about pH 4.7 and stored at 2-8° C. and 50° C. for 2 days. The stability of vancomycin was indicated by vancomycin recovery (% over the initial concentration) after storage at a selected temperature. The concentration of vancomycin or vancomycin assay was measured using HPLC method (USP Vancomycin Assay method). The relative stability of vancomycin in each solution was expressed in vancomycin concentration or assay recovery (% over the initial concentration).
# The aim of this study was to compare various amino acids, including tryptophan, on their effects on vancomycin stability in an aqueous solution. The solution samples were prepared and tested similarly to Example 2.
# The solution samples were prepared and tested in a similar way as in Example 2. The test sample compositions and test results are shown in the Table below and the effects of tryptophan concentration on vancomycin stability are depicted graphically in FIG. 4.
# [2] = Merck Index (12th edition); cited from earlier work
# Solubility in water = type: physicochemical; conditions: for solubility: water
# physchem = assay: physchem
# Description: As used herein, “molecular complex” means a special interaction between two molecules that are not covalently bonded. […] One of the methods to detect molecular complex formation is the phase solubility diagram which measures changes in solubility of one molecule (“substrate”) as a function of the other molecule (“complexing agent”) (T. Higuchi and J. L. Lach, J. Am. Pharm. Assoc., Sci. Ed. 43, 349, 525, 527, 1954).
# In addition, this study intended to determine the stoichiometric ratio of such molecular complex formed. To obtain a phase solubility diagram of tryptophan, pre-calculated amounts of tryptophan, vancomycin and water were added into a plastic tube to form a suspension in which vancomycin was completed dissolved but tryptophan was not completed dissolved, the suspension was adjusted to pH 6.2, mixed at room temperature (RT) overnight to reach dissolution/re-crystallization equilibrium, and then filtered through a 0.2-micorn filter membrane. The filtrate was diluted and analyzed by HPLC (using the USP HPLC vancomycin assay method) to determine the concentrations of tryptophan and vancomycin. The solubility of tryptophan measured and the concentration of vancomycin added measured in each suspension sample are provided in the Table below: […]
# E. faecalis ATCC 29212 = assay: Minimum Inhibitory Concentration (CLSI); type: cell-based; conditions: Example 11
# Description: (§1) Standards for this method are outlined by the Clinical and Laboratory Standards Institute (CLSI). The table below describes the vancomycin solution composition used to test antibiotic potency:
# (§2) Standards for this method are outlined by the Clinical and Laboratory Standards Institute (CLSI).
# S. aureus ATCC 25923 = assay: Minimum Inhibitory Concentration (CLSI); type: cell-based; conditions: Example 11
# Description: as §1, §2
smiles,measurement,setting,value
CC(=O)N[C@@H](Cc1c[nH]c2ccccc12)C(=O)O [N-acetyl-tryptophan],effect of additive on vancomycin stability in solution,[1],capable of slowing down the degradation of vancomycin in solution
CN[C@H](CC(C)C)C(=O)N[C@H]1C(=O)N[C@@H](CC(N)=O)C(=O)N[C@H]2C(=O)N[C@H]3C(=O)N[C@H](C(=O)N[C@H](C(=O)O)c4cc(O)cc(O)c4-c4cc3ccc4O)[C@H](O)c3ccc(c(Cl)c3)Oc3cc2cc(c3O[C@@H]2O[C@H](CO)[C@@H](O)[C@H](O)[C@H]2O[C@H]2C[C@](C)(N)[C@H](O)[C@H](C)O2)Oc2ccc(cc2Cl)[C@H]1O [vancomycin hydrochloride],solubility of vancomycin hydrochloride in water,[2],> 10 % w/v
CN[C@H](CC(C)C)C(=O)N[C@H]1C(=O)N[C@@H](CC(N)=O)C(=O)N[C@H]2C(=O)N[C@H]3C(=O)N[C@H](C(=O)N[C@H](C(=O)O)c4cc(O)cc(O)c4-c4cc3ccc4O)[C@H](O)c3ccc(c(Cl)c3)Oc3cc2cc(c3O[C@@H]2O[C@H](CO)[C@@H](O)[C@H](O)[C@H]2O[C@H]2C[C@](C)(N)[C@H](O)[C@H](C)O2)Oc2ccc(cc2Cl)[C@H]1O [vancomycin],vancomycin solubility limit in water,Solubility in water,about 12 % w/v
same,solubility,Solubility in water; read-out: vancomycin solubility limit in water,~120 mg/mL
N[C@@H](Cc1c[nH]c2ccccc12)C(=O)O [tryptophan],tryptophan solubility,physchem; pH 6.2,2.2%
same,tryptophan solubility (estimated),physchem; pH 6.2,~2.5%
same,solubility,"physchem; pH 6.2, aqueous buffer, thermodynamic from solid",~70 mM
same,solubility,"Solubility in water; without vancomycin, read-out: tryptophan solubility in water",~14 mg/mL
same,effect of addition of tryptophan on the MIC of vancomycin,E. faecalis ATCC 29212,does not affect the MIC of vancomycin
same,effect of addition of tryptophan on the MIC of vancomycin,S. aureus ATCC 25923,does not affect the MIC of vancomycin
same,effect of additive on vancomycin stability in solution,[1],capable of slowing down the degradation of vancomycin in solution
same,effect of amino acid on vancomycin stability in solution,[1],capable of slowing down the degradation of vancomycin
same,effect of tryptophan concentration on vancomycin stability in solution,[1],improves vancomycin stability in a concentration-dependent fashion
